{
  "source": "patent US20260232582A1",
  "about": "“PHARMACEUTICAL COMPOSITION OF ENSIFENTRINE WITH PHARMACEUTICALLY ACCEPTABLE PROPELLANTS” (CIPLA LIMITED, priority 2023, published 2026)",
  "origin": "cited, not measured here",
  "key": {"subjects": {"test_system": "subjects", "conditions": "clinical trials involving more than 2,200 subjects"}, "COPD patients": {"test_system": "COPD patients", "conditions": "Phase 2; DPI and pMDI formulations"}},
  "data": [
    {"smiles": "COc1cc2c(cc1OC)-c1c/c(=N\\c3c(C)cc(C)cc3C)n(CCNC(N)=O)c(=O)n1CC2", "note": "[Ensifentrine]", "values": [
      {"measurement": "Tolerability in clinical trials", "setting": "subjects", "result": "well tolerated"},
      {"measurement": "Primary endpoint (improvements in lung function)", "setting": "COPD; nebulized, both ENHANCE-1 and ENHANCE-2 trials", "result": "met the primary endpoint"},
      {"measurement": "Rate and risk of COPD exacerbations", "setting": "COPD; pooled analysis from ENHANCE-1 and ENHANCE-2", "result": "significantly reduced"},
      {"measurement": "Lung function in COPD patients", "setting": "COPD patients", "result": "significant improvements in lung function"}
    ]}
  ]
}
